Source: PubChem BioAssay AID292 (DTP/NCI, 2004)
Values joined by “and” are separate entries in the source; they are usually repeats but may differ in a detail not shown here. Identical values can stand only once. Toxic doses and inconclusive results are not listed.

System: B6C3F1 mice, ip Sarcoma M5076, median survival T/C
Assay: NCI In Vivo Anticancer Drug Screen. Data for tumor model Sarcoma M5076 (intraperitoneal) in B6C3F1 mice
Conditions: endpoint: median survival time, schedule: Q04DX004 (ip), higher = longer survival
Outline: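 Antitumour effect is judged in tumour-bearing mice by comparing survival after compound dosing against vehicle-only animals, reported as T/C.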

[1] = dose: 2.0 mg/kg/injection, vehicle: saline
[2] = dose: 4.0 mg/kg/injection, vehicle: saline
[3] = dose: 8.0 mg/kg/injection, vehicle: saline

## O=C(O)c1cc(C(=O)O)c(C(=O)O)cc1C(=O)O.[NH2-].[NH2-].[NH2-].[NH2-].[Pt+2].[Pt+2]
dose: 0.12 mg/kg/injection, vehicle: water
  T/C: 99 % of control
dose: 0.25 mg/kg/injection, vehicle: water
  T/C: 112 % of control
dose: 0.5 mg/kg/injection, vehicle: water
  T/C: 100 % of control
dose: 1.0 mg/kg/injection, vehicle: water
  T/C: 97 % of control
dose: 2.0 mg/kg/injection, vehicle: water
  T/C: 94 % of control
dose: 4.0 mg/kg/injection, vehicle: water
  T/C: 103 % of control and 108 % of control
dose: 8.0 mg/kg/injection, vehicle: water
  T/C: 113 % of control and 119 % of control
dose: 32.0 mg/kg/injection, vehicle: water
  T/C: 150 % of control and 241 % of control
dose: 64.0 mg/kg/injection, vehicle: water
  T/C: 250 % of control

## COc1oc(C2C/C(=C/C(C)=C/C(C)=C/C(C)=C/c3ccc([N+](=O)[O-])cc3)CO2)c(C)c(=O)c1C (stereo not given)
dose: 1.0 mg/kg/injection, vehicle: saline
  T/C: 100 % of control
[1]
  T/C: 102 % of control and 104 % of control
[2]
  T/C: 102 % of control and 103 % of control
[3]
  T/C: 106 % of control and 115 % of control

## CC(C)CC(NC(=O)CF)C(=O)O (stereo not given)
dose: 1.56 mg/kg/injection, vehicle: saline with Tween-80
  T/C: 98 % of control
dose: 3.12 mg/kg/injection, vehicle: saline with Tween-80
  T/C: 102 % of control
dose: 6.25 mg/kg/injection, vehicle: saline with Tween-80
  T/C: 95 % of control
dose: 12.5 mg/kg/injection, vehicle: saline with Tween-80
  T/C: 97 % of control

## COc1ccc(-c2nnc3cc(C)n4nnnc4n23)cc1OC
dose: 18.75 mg/kg/injection, vehicle: Klucel (hydroxypropylcellulose) (HPC)
  T/C: 99 % of control
dose: 37.5 mg/kg/injection, vehicle: Klucel (hydroxypropylcellulose) (HPC)
  T/C: 94 % of control
dose: 75.0 mg/kg/injection, vehicle: Klucel (hydroxypropylcellulose) (HPC)
  T/C: 98 % of control
dose: 150.0 mg/kg/injection, vehicle: Klucel (hydroxypropylcellulose) (HPC)
  T/C: 99 % of control
dose: 300.0 mg/kg/injection, vehicle: Klucel (hydroxypropylcellulose) (HPC)
  T/C: 91 % of control

## Cc1noc2nc(-c3ccccc3)cc(N3CCN(C)CC3)c12
dose: 25.0 mg/kg/injection, vehicle: other
  T/C: 95 % of control
dose: 50.0 mg/kg/injection, vehicle: other
  T/C: 105 % of control
dose: 100.0 mg/kg/injection, vehicle: other
  T/C: 99 % of control
dose: 200.0 mg/kg/injection, vehicle: other
  T/C: 97 % of control

## O=C(CCl)N1CCN(C/C=C/c2ccccc2)CC1
dose: 37.5 mg/kg/injection, vehicle: saline
  T/C: 106 % of control
dose: 75.0 mg/kg/injection, vehicle: saline
  T/C: 96 % of control
dose: 150.0 mg/kg/injection, vehicle: saline
  T/C: 96 % of control

## [N-]=[N+]=NCCOCn1ccc(=O)[nH]c1=O
dose: 37.5 mg/kg/injection, vehicle: suspension in saline
  T/C: 102 % of control
dose: 75.0 mg/kg/injection, vehicle: suspension in saline
  T/C: 107 % of control
dose: 150.0 mg/kg/injection, vehicle: suspension in saline
  T/C: 109 % of control
dose: 300.0 mg/kg/injection, vehicle: suspension in saline
  T/C: 103 % of control
dose: 600.0 mg/kg/injection, vehicle: suspension in saline
  T/C: 98 % of control

## N[C@@H](Cc1ccc(N(CCCl)CCCl)cc1)C(=O)O
dose: 0.5 mg/kg/injection, vehicle: saline with Tween-80
  T/C: 124 % of control
dose: 2.0 mg/kg/injection, vehicle: saline with Tween-80
  T/C: 188 % of control
[1]
  T/C: 151 % of control
dose: 4.0 mg/kg/injection, vehicle: saline with Tween-80
  T/C: 213 % of control and 221 % of control
[2]
  T/C: 172 % of control
dose: 8.0 mg/kg/injection, vehicle: saline with Tween-80
  T/C: 251 % of control
[3]
  T/C: 251 % of control

## S=C1CCCCN1
dose: 6.25 mg/kg/injection, vehicle: distilled water + alcohol
  T/C: 101 % of control
dose: 12.5 mg/kg/injection, vehicle: distilled water + alcohol
  T/C: 99 % of control
dose: 25.0 mg/kg/injection, vehicle: distilled water + alcohol
  T/C: 98 % of control and 103 % of control
dose: 50.0 mg/kg/injection, vehicle: distilled water + alcohol
  T/C: 92 % of control and 94 % of control and 100 % of control
dose: 100.0 mg/kg/injection, vehicle: distilled water + alcohol
  T/C: 88 % of control and 100 % of control (2×)

## COCCCNC1=C(C#N)C(=O)NC2(CCCC2)S1
dose: 50.0 mg/kg/injection, vehicle: saline with Tween-80
  T/C: 97 % of control
dose: 100.0 mg/kg/injection, vehicle: saline with Tween-80
  T/C: 97 % of control
dose: 200.0 mg/kg/injection, vehicle: saline with Tween-80
  T/C: 97 % of control
dose: 400.0 mg/kg/injection, vehicle: saline with Tween-80
  T/C: 90 % of control

## CC(=O)C1C(=O)C(=O)N(c2cc(C)ccc2O)C1=O (stereo not given)
dose: 50.0 mg/kg/injection, vehicle: Klucel + Tween-80
  T/C: 106 % of control
dose: 100.0 mg/kg/injection, vehicle: Klucel + Tween-80
  T/C: 100 % of control

## COc1ccc(C=C(C(=O)CCN(C)C)C(=O)CCN(C)C)cc1
dose: 25.0 mg/kg/injection, vehicle: saline
  T/C: 99 % of control
dose: 50.0 mg/kg/injection, vehicle: saline
  T/C: 101 % of control
dose: 100.0 mg/kg/injection, vehicle: saline
  T/C: 102 % of control
dose: 200.0 mg/kg/injection, vehicle: saline
  T/C: 102 % of control

## CC(/C=C/C1OC(=O)C=CC1C)=C\C(C)C/C=C/C(C)=C/C(CO)C(=O)C(C)C(O)C(C)C/C(C)=C/C(=O)O (stereo not given)
dose: 13.63 micrograms/kg/injection, vehicle: other
  T/C: 100 % of control
dose: 27.25 micrograms/kg/injection, vehicle: other
  T/C: 107 % of control
dose: 54.5 micrograms/kg/injection, vehicle: other
  T/C: 109 % of control
dose: 109.0 micrograms/kg/injection, vehicle: other
  T/C: 113 % of control
dose: 500.0 micrograms/kg/injection, vehicle: other
  T/C: 171 % of control
dose: 1000.0 micrograms/kg/injection, vehicle: other
  T/C: 202 % of control
dose: 2000.0 micrograms/kg/injection, vehicle: other
  T/C: 192 % of control

## COc1cc2c(c(OC)c1OC)-c1ccc(OC)c(=O)cc1[C@@H](N)CC2
dose: 5.0 mg/kg/injection, vehicle: saline
  T/C: 119 % of control
dose: 5.0 mg/kg/injection, vehicle: suspension in saline
  T/C: 116 % of control
dose: 8.6 mg/kg/injection, vehicle: suspension in saline
  T/C: 123 % of control
dose: 10.0 mg/kg/injection, vehicle: suspension in saline
  T/C: 118 % of control
dose: 20.0 mg/kg/injection, vehicle: saline
  T/C: 152 % of control
dose: 24.0 mg/kg/injection, vehicle: suspension in saline
  T/C: 123 % of control
dose: 40.0 mg/kg/injection, vehicle: saline
  T/C: 157 % of control

## O=c1ccn(C2CC3[O][Sn]([c]4ccccc4)([c]4ccccc4)[O]CC3O2)c(=O)[nH]1 (stereo not given)
dose: 25.0 mg/kg/injection, vehicle: distilled water + Tween-80
  T/C: 104 % of control
dose: 50.0 mg/kg/injection, vehicle: distilled water + Tween-80
  T/C: 102 % of control
dose: 100.0 mg/kg/injection, vehicle: distilled water + Tween-80
  T/C: 101 % of control
dose: 200.0 mg/kg/injection, vehicle: distilled water + Tween-80
  T/C: 103 % of control
dose: 400.0 mg/kg/injection, vehicle: distilled water + Tween-80
  T/C: 102 % of control
